# Test results taken from EP1953147A1, “HETEROCYCLIC COMPOUND AND MEDICINAL APPLICATION THEREOF” (priority 2005, dated 2007).
# Structures can show the parent of a compound that is named as a salt.
# Tested on: ΔG/SEAP/HCV E1E2
# Experiment: Effect of test substance on cell infection with HCV pseudotype virus (SEAP reporter assay in HepG2 cells)
# Type: cell-based
# Conditions: Hepatitis C virus
row,Compound,IC50 [nM]
1,"Cc1cc(-c2cnco2)cc(-c2nn(-c3cc(N4CC[C@H](O)C4)ccc3C(F)(F)F)c(=O)c3c2CCCN3)c1 [Example 1-38, 7-[5-((S)-3-hydroxy-pyrrolidin-1-yl)-2-trifluoromethylphenyl]-5-[3-methyl-5-(oxazol-5-yl)-phenyl]-1,3,4,7-tetrahydro-2H-pyrido[2,3-d]pyridazin-8-one]",< 100
2,"COc1cc(OC)cc(-c2nn(-c3cc(N4CC[C@H](O)C4)ccc3C(F)(F)F)c(=O)c3c2CCN3CC(=O)NCCCN2CCN(CCCNC(C)=O)CC2)c1 [Example 56, N-{3-[4-(3-acetylamino-propyl)-piperazin-1-yl]-propyl}-2-{4-(3,5-dimethoxy-phenyl)-6-[5-((S)-3-hydroxy-pyrrolidin-1-yl)-2-trifluoromethyl-phenyl]-7-oxo-2,3,6,7-tetrahydro-pyrrolo[2,3-d]pyridazin-1-yl}-acetamide]",100 to 10000
3,"COc1cc(OC)cc(-c2nn(-c3cc(NCCNC(=O)OC(C)(C)C)ccc3C(F)(F)F)c(=O)c3c2CCC3)c1 [Example 118, (2-{3-[4-(3,5-dimethoxy-phenyl)-1-oxo-1,5,6,7-tetrahydro-cyclopenta[d]pyridazin-2-yl]-4-trifluoromethyl-phenylamino}-ethyl)-carbamic acid tert-butyl ester]",< 100
4,"COc1cc(OC)cc(-c2nn(-c3cc(NCc4ccccc4)ccc3C(F)(F)F)c(=O)c3c2CCC3)c1 [Example 135, 2-(5-benzylamino-2-trifluoromethyl-phenyl)-4-(3,5-dimethoxy-phenyl)-2,5,6,7-tetrahydro-cyclopenta[d]pyridazin-1-one]",100 to 10000
5,"COc1cc(OC)cc(-c2nn(-c3ccccc3C(F)(F)F)c(=O)c3c2CCN3)c1 [Example 32, 4-(3,5-dimethoxy-phenyl)-6-(2-trifluoromethylphenyl)-1,2,3,6-tetrahydro-pyrrolo[2,3-d]pyridazin-7-one]",100 to 10000
6,"COc1cc(OC)cc(-c2nn(-c3cc(NCC(=O)N(C)C)ccc3C(F)(F)F)c(=O)c3c2CCC3)c1 [Example 125, 2-{3-[4-(3,5-dimethoxy-phenyl)-1-oxo-1,5,6,7-tetrahydro-cyclopenta[d]pyridazin-2-yl]-4-trifluoromethyl-phenylamino}-N,N-dimethyl-acetamide]",< 100
7,"COc1cc(C)cc(-c2nn(-c3cc(N4CC[C@@H](O)C4)ccc3C(F)(F)F)c(=O)c3c2CCC3)c1 [Example 23, 2-[5-((R)-3-hydroxy-pyrrolidin-1-yl)-2-trifluoromethyl-phenyl]-4-(3-methoxy-5-methyl-phenyl)-2,5,6,7-tetrahydro-cyclopenta[d]pyridazin-1-one]",< 100
8,"CNc1ccc(C(F)(F)F)c(-n2nc(-c3cc(OC)cc(OC)c3)c3c(c2=O)CCC3)c1 [Example 82, 4-(3,5-dimethoxy-phenyl)-2-(5-methylamino-2-trifluoromethyl-phenyl)-2,5,6,7-tetrahydro-cyclopenta[d]pyridazin-1-one]",< 100
9,"Cc1cc(-c2cnco2)cc(-c2nn(-c3cc(N4CC[C@H](O)C4)ccc3C(F)(F)F)c(=O)c3c2CC(C)(C)C3)c1 [Example 6, 2-[5-((S)-3-hydroxy-pyrrolidin-1-yl)-2-trifluoromethyl-phenyl]-6,6-dimethyl-4-(3-methyl-5-oxazol-5-yl-phenyl)-2,5,6,7-tetrahydro-cyclopenta[d]pyridazin-1-one]",< 100
10,"COc1cc(OC)cc(-c2nn(-c3cc(N4CC[C@H](O)C4)ccc3C(F)(F)F)c(=O)c3c2CCN3CC(=O)NCCCCCCNC(C)=O)c1 [Example 40, N-(6-acetylamino-hexyl)-2-{4-(3,5-dimethoxy-phenyl)-6-[5-((S)-3-hydroxy-pyrrolidin-1-yl)-2-trifluoromethyl-phenyl]-7-oxo-2,3,6,7-tetrahydro-pyrrolo[2,3-d]pyridazin-1-yl}-acetamide]",< 100
11,"COc1cc(OC)cc(-c2nn(-c3cc(CN(C)C)ccc3C(F)(F)F)c(=O)c3c2CCC3)c1 [Example 160, 4-(3,5-dimethoxy-phenyl)-2-(5-dimethylaminomethyl-2-trifluoromethyl-phenyl)-2,5,6,7-tetrahydro-cyclopenta[d]pyridazin-1-one hydrochloride]",100 to 10000
12,"COc1cc(OC)cc(-c2nn(-c3cc(N4CC(CO)C4)ccc3C(F)(F)F)c(=O)c3c2CCCN3CCO)c1 [Example 1-40, 5-(3,5-dimethoxy-phenyl)-1-(2-hydroxy-ethyl)-7-[5-(3-hydroxymethyl-azetidin-1-yl)-2-trifluoromethylphenyl]-1,3,4,7-tetrahydro-2H-pyrido[2,3-d]pyridazin-8-one]",< 100
13,"Cc1cc(-c2cnco2)cc(-c2nn(-c3cc(-c4cccnn4)ccc3C(F)(F)F)c(=O)c3c2CC(C)N3)c1 (stereo not drawn) [Example 5, 2-methyl-4-(3-methyl-5-oxazol-5-yl-phenyl)-6-(5-pyridazin-3-yl-2-trifluoromethyl-phenyl)-1,2,3,6-tetrahydro-pyrrolo[2,3-d]pyridazin-7-one]",< 100
14,"Cc1cc(C)cc(-c2nn(-c3cc(-c4cccnn4)ccc3C(F)(F)F)c(=O)c3c2CC(C)N3)c1 (stereo not drawn) [Example 12, 4-(3,5-dimethyl-phenyl)-2-methyl-6-(5-pyridazin-3-yl-2-trifluoromethyl-phenyl)-1,2,3,6-tetrahydro-pyrrolo[2,3-d]pyridazin-7-one]",< 100
15,"O=c1c2c(c(-c3cccc(Br)c3)nn1-c1cc(N3CC[C@H](O)C3)ccc1C(F)(F)F)CCC2 [Example 73, 4-(3-bromo-phenyl)-2-[5-((S)-3-hydroxy-pyrrolidin-1-yl)-2-trifluoromethyl-phenyl]-2,5,6,7-tetrahydro-cyclopenta[d]pyridazin-1-one]",< 100
16,"COc1ccccc1-c1nn(-c2cc(N3CC[C@H](O)C3)ccc2C(F)(F)F)c(=O)c2c1CCC2 [Example 109, 2-[5-((S)-3-hydroxy-pyrrolidin-1-yl)-2-trifluoromethyl-phenyl]-4-(2-methoxy-phenyl)-2,5,6,7-tetrahydro-cyclopenta[d]pyridazin-1-one]",100 to 10000
17,"COc1cc(OC)cc(-c2nn(-c3cc(N4CCCC4=O)ccc3C(F)(F)F)c(=O)c3c2CCC3)c1 [Example 150, 4-(3,5-dimethoxy-phenyl)-2-[5-(2-oxo-pyrrolidin-1-yl)-2-trifluoromethyl-phenyl]-2,5,6,7-tetrahydro-cyclopenta[d]pyridazin-1-one]",< 100
18,"COc1cc(-c2nn(-c3cc(N4CC[C@H](O)C4)ccc3C(F)(F)F)c(=O)c3c2CCC3)ccn1 [Example 93, 2-[5-((S)-3-hydroxy-pyrrolidin-1-yl)-2-trifluoromethyl-phenyl]-4-(2-methoxy-pyridin-4-yl)-2,5,6,7-tetrahydro-cyclopenta[d]pyridazin-1-one]",100 to 10000
